Reference: patent US12258336B2, “Preparation of seimicarbazide-sensitive amine oxidase inhibitor and use thereof” (SHANGHAI ENNOVABIO PHARMACEUTICALS CO., LTD., priority 2018, dated 2025)

Target: T1, Recombinant human AOC1/DAO protein (Homo sapiens, UniProt P19801)
T1 construct: purchased R&D systems 8298-AO
T1 sequence (P19801 20-751): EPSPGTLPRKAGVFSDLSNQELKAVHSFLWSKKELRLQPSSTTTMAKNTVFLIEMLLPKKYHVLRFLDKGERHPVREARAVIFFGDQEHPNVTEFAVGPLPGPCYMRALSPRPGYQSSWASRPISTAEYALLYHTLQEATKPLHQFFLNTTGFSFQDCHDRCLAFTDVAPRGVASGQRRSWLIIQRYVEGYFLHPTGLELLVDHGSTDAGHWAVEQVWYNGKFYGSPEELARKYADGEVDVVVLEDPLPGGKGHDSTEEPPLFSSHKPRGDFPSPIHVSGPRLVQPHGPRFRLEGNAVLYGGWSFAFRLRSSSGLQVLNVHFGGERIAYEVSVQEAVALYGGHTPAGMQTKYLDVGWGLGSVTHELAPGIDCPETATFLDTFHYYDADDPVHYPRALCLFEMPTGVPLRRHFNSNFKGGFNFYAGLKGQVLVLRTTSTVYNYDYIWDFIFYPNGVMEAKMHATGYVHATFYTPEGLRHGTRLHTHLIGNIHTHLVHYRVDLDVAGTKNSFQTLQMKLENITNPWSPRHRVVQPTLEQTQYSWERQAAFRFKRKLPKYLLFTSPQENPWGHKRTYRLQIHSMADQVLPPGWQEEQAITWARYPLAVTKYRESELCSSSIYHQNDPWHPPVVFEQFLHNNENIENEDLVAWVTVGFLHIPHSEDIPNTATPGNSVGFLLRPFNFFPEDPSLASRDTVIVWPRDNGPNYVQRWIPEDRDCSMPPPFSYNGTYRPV
Experiment: Inhibitory activity on AOC1 (Amplex UltraRed)
Type: biochemical
Protocol: Recombinant human AOC1/DAO protein was purchased from R&D systems (Cat: 8298-AO). Amplex UltraRed was purchased from Thermo scientific (Cat: A36006). HRP (Cat: P8250) and Putrescine (Cat: V900377) were purchased from Sigma. Enzyme reaction buffer (50 mM HEPES, 120 mM NaCl, 5 mM KCl, 2 mM CaCl2, 1.4 mM MgCl2, 0.001% Tween-20, pH7.4) was prepared. Test compound was dissolved in DMSO and diluted by 3-fold concentration in gradient. The final concentration of test compound in 10 μL reaction system was 100 μM to 5 nM when AOC1 was detected. The content of DMSO in detection reaction was 1%. After the solution of test compound in DMSO was diluted in the enzyme reaction buffer at a volume ratio of 1:25, 10 μL of mixture was added to each well of detection plate. 4× substrate mixture (containing 400 μM Putrescine, 4 U/mL HRP, 4 μM Amplex UltraRed) was prepared in the enzyme reaction buffer, 10 μL of which was added to each well. 20 μL of AOC1 protein diluted in enzyme reaction buffer was added to each well at final concentration 0.4 nM in 40 μL reaction system. Synergy Neo 2 was used to read the plate for detection. The instrument was set at 30° C., 530 nm excitation wavelength, 590 nm emission wavelength. Detection was conducted once every minute for 30 minutes continuously. The enzyme activity was calculated based on the increased signal of each well from the 10th minute to the 30th minute. The value was converted into inhibition rate by the following formula Inhibition rate=(Signalpositive−Signaltest)/(Signalpositive−Signalnegative)×100%
Signalpositive was positive control without test compound. Signalnegative was negative control without test compound and AOC1, and Signaltest was detection value of different compounds at each concentration. IC50 value was calculated by using 4 parameter curve fitting.

| IC50 | SMILES |
| --- | --- |
| > 10 µM | CC1(C)CN(C2COC2)CCN1c1ncc(OC/C(=C/F)CN)cn1 [Example 5] |
| > 10 µM | N#Cc1cc(OC/C(=C/F)CN)cnc1N1CCN(C2COC2)CC1 [Example 7] |
| > 10 µM | CC1CN(c2ncc(OC/C(=C/F)CN)cn2)CC(C)N1C1COC1 (centres unmarked) [Example 1, (E)-2-(((2-(3,5-dimethyl-4-(oxbutan-3-yl)piperazin-1-yl)pyrimidin-5-yl)oxo)methyl)-3-fluoroprop-2-en-1-amine] |
| 0.1 to 10 µM | COC1CC2CC1CN2c1ncc(OC/C(=C/F)CN)cn1 (centres unmarked) [Example 2] |
| 0.1 to 10 µM | NC/C(=C\F)COc1cnc(N2CCC3(CC2)COC3)nc1 [Example 3] |
| > 10 µM | NC/C(=C\F)COc1cnc(N2CCN(C3COC3)CC2)nc1 [Example 4, (E)-3-fluoro-2-(((2-(4-(oxbutan-3-yl)piperazin-1-yl)pyrimidin-5-yl)oxo)methyl)prop-2-en-1-amine] |
| 0.1 to 10 µM | NC/C(=C\F)COc1cnc(N2CCN(c3cnc(N4CCN(C5COC5)CC4)nc3)CC2)nc1 [Example 9] |
| > 10 µM | NC/C(=C/F)COc1cnc(N2CCN(C3COC3)CC2)nc1 [Example 8] |
| > 10 µM | CC1(C)CN(c2ncc(OC/C(=C/F)CN)cn2)CCN1C1COC1 [Example 10] |

| SMILES | IC50 |
| --- | --- |
| COC1CC2CCC(C1)N2c1ncc(OC/C(=C/F)CN)cn1 (centres unmarked) [Example 12] | > 10 µM |
| NC/C(=C\F)COc1cnc(N2CC3CCC(C2)N3C2COC2)nc1 [Example 6] | > 10 µM |
